Tests used:
Experiment in all cases: biochemical
Set-up in all cases: DiscoverX KINOMEscan scanMAX competition binding panel, single concentration, percent of control; remaining binding: dose or concentration left out as unconfirmed
Details in all cases: KINOMEscan binding, percent of control; read-out: Table S4_SCANMAX REPORT - related to Fig. 1 / Percent Control
PKAC-alpha = target: T1, PKAC-alpha (Homo sapiens, UniProt P17612)
T1 construct: gene PRKACA

[1] = target: T2, RSK4(Kin.Dom.2-C-terminal) (Homo sapiens, UniProt Q9UK32)
T2 construct: gene RPS6KA6; Kin.Dom.2-C-terminal

MST1R = MST1R (Homo sapiens, UniProt Q04912)
NEK5 = NEK5 (Homo sapiens, UniProt Q6P3R8)
BRK = target: T3, BRK (Homo sapiens, UniProt Q13882)
T3 construct: gene PTK6

MTOR = MTOR (Homo sapiens, UniProt P42345)
FLT3(D835V) = FLT3(D835V) (Homo sapiens, UniProt P36888, D835V)
EPHA6 = EPHA6 (Homo sapiens, UniProt Q9UF33)
CSNK1D = CSNK1D (Homo sapiens, UniProt P48730)
PFCDPK1(P.falciparum) = target: T4, PFCDPK1(P.falciparum) (Plasmodium falciparum, UniProt P62344)
T4 construct: gene CDPK1

HIPK3 = HIPK3 (Homo sapiens, UniProt Q9H422)
DYRK2 = DYRK2 (Homo sapiens, UniProt Q92630)
EGFR(L858R,T790M) = EGFR(L858R,T790M) (Homo sapiens, UniProt P00533, L858R/T790M)
SRC = SRC (Homo sapiens, UniProt P12931)
FGFR3(G697C) = FGFR3(G697C) (Homo sapiens, UniProt P22607, G697C)
MYLK2 = MYLK2 (Homo sapiens, UniProt Q9H1R3)
EPHB4 = EPHB4 (Homo sapiens, UniProt P54760)
MEK3 = target: T5, MEK3 (Homo sapiens, UniProt P46734)
T5 construct: gene MAP2K3
T5 sequence (P46734 whole entry): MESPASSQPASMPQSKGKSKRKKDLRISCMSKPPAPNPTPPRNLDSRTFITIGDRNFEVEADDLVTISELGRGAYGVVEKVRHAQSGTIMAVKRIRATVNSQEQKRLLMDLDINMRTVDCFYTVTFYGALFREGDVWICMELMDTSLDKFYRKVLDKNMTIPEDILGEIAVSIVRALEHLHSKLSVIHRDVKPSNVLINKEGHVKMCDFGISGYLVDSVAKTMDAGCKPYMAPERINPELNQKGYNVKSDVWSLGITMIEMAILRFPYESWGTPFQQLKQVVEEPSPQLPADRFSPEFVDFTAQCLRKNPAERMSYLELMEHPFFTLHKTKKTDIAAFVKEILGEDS

Sequence of NEK5 (Q6P3R8 whole entry): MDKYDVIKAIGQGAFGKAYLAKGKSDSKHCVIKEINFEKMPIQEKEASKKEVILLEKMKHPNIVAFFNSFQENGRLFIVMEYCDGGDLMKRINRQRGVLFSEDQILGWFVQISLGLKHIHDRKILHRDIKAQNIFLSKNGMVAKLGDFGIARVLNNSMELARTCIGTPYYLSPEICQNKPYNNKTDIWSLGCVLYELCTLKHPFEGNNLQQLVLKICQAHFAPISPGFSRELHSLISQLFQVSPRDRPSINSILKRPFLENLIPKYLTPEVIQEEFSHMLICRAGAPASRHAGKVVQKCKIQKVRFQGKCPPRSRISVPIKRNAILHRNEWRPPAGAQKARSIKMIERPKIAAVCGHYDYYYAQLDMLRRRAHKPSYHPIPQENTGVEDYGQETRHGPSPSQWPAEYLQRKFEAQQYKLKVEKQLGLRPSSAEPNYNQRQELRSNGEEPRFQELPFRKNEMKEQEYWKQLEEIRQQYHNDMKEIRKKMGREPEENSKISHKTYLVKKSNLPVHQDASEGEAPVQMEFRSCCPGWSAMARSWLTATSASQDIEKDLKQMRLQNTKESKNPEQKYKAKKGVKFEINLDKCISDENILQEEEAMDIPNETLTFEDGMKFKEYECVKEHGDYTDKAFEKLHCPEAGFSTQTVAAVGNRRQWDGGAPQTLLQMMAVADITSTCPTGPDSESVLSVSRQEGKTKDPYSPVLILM
T3 sequence (Q13882 whole entry): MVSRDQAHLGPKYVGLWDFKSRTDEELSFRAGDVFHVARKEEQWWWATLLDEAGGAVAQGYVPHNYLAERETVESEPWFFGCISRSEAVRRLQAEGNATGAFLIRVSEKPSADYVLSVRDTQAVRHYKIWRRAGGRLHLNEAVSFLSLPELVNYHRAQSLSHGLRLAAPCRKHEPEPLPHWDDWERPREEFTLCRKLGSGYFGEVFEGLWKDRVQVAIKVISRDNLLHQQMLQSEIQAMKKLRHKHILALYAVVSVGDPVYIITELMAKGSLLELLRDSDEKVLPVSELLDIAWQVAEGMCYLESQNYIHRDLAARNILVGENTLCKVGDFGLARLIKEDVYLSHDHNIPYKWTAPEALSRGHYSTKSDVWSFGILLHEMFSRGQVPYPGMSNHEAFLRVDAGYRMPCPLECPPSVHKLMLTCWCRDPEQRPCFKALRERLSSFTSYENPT
Sequence of DYRK2 (Q92630 whole entry): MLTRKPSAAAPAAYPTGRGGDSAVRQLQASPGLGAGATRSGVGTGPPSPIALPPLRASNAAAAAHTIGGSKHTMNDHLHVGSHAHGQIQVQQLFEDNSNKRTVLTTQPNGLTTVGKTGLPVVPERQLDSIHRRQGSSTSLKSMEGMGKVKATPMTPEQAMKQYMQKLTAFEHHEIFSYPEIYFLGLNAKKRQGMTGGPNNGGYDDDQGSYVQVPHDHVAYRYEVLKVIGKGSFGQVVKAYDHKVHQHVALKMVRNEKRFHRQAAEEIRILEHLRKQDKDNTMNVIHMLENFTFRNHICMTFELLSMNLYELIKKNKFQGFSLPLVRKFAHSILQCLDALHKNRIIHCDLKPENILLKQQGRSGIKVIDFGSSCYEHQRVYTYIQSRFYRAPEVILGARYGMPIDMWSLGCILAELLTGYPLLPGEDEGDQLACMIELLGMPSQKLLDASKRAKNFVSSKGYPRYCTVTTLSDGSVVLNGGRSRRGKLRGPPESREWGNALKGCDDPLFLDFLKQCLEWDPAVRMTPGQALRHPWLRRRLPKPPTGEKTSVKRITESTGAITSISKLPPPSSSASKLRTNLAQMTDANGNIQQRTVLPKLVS
Sequence of EGFR(L858R,T790M) (P00533 whole entry T790M/L858R): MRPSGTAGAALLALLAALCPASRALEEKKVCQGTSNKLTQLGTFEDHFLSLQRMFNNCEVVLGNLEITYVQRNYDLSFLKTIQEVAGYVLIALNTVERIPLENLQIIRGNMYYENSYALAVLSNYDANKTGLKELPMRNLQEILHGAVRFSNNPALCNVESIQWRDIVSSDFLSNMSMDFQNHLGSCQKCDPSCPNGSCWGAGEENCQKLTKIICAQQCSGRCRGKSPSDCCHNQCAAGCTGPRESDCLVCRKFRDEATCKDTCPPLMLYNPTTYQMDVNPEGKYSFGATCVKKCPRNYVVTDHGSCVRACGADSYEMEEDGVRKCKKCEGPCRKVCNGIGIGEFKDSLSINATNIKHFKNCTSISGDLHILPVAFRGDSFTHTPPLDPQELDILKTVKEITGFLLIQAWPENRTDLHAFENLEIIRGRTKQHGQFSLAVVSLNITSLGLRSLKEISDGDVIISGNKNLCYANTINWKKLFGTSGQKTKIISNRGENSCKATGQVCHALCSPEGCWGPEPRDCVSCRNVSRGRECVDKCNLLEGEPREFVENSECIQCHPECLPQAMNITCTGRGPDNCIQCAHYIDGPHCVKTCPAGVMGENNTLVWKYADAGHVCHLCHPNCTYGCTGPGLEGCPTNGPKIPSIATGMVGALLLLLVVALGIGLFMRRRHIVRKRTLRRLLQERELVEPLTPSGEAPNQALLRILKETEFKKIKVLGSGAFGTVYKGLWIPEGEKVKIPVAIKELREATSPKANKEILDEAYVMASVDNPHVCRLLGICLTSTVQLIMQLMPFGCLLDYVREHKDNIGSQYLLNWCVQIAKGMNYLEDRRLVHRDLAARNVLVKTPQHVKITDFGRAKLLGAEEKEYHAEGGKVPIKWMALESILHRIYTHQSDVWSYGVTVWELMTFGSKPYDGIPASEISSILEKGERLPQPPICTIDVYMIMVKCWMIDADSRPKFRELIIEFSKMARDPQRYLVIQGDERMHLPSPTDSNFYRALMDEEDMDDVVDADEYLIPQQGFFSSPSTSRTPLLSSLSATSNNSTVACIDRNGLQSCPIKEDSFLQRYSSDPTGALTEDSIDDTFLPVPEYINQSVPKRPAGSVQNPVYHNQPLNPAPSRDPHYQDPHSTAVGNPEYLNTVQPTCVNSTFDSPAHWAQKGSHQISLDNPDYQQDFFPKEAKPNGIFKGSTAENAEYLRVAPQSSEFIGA
Sequence of EPHA6 (Q9UF33 whole entry): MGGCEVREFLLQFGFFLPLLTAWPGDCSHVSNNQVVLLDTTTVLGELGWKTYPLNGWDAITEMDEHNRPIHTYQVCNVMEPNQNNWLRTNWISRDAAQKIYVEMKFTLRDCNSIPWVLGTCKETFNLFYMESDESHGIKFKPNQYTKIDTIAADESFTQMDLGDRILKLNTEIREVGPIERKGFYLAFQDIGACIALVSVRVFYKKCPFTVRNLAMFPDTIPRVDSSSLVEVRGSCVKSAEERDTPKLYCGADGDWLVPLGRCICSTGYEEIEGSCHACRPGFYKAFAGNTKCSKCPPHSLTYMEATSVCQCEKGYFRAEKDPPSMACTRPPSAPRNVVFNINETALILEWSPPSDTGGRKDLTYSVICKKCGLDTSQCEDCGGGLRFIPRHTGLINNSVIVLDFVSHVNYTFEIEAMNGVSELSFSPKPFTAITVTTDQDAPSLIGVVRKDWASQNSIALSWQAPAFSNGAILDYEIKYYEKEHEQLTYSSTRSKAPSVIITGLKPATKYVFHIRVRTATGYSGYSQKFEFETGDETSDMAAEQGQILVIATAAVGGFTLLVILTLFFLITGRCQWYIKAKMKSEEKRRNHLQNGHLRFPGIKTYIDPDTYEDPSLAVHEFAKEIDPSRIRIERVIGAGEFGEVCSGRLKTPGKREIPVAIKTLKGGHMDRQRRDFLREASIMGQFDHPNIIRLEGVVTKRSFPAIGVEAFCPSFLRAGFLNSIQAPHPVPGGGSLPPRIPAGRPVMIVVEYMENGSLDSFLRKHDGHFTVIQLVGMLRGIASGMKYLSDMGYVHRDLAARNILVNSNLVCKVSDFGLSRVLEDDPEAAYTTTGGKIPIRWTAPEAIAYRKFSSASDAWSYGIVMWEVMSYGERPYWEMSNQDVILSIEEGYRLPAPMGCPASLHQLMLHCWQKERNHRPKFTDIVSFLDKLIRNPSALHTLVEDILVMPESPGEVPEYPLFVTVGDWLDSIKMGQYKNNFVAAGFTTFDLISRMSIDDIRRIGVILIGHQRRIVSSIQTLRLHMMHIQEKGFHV
T4 sequence (P62344 whole entry): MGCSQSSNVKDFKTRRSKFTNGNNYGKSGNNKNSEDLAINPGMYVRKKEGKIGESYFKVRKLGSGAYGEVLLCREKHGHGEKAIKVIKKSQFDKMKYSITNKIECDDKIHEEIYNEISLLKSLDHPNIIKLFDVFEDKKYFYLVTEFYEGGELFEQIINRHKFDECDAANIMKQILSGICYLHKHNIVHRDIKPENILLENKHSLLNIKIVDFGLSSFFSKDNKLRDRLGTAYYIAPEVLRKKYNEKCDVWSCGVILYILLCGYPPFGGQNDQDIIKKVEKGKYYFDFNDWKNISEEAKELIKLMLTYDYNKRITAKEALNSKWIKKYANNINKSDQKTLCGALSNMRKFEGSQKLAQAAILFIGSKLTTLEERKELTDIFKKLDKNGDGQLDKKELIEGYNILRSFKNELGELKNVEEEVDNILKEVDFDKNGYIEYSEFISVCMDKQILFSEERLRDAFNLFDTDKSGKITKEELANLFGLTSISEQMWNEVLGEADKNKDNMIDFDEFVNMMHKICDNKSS

c1ccc2c(c1)Sc1ccccc1N2CCN1CCOCC1 [J54]
remaining binding (PKAC-alpha): 98%
remaining binding [1]: 99%
remaining binding (MST1R): 100%
remaining binding (NEK5): 70%
remaining binding (BRK): 100%
remaining binding at 15 µM (MTOR): 100%
remaining binding (FLT3(D835V)): 46%
remaining binding (EPHA6): 100%
remaining binding (CSNK1D): 95%
remaining binding (PFCDPK1(P.falciparum)): 100%
remaining binding (HIPK3): 100%
remaining binding (DYRK2): 83%
remaining binding (EGFR(L858R,T790M)): 100%
remaining binding (SRC): 96%
remaining binding (FGFR3(G697C)): 100%
remaining binding (MYLK2): 74%
remaining binding (EPHB4): 100%
remaining binding (MEK3): 100%

From article PMC7486443, “Generation of Phenothiazine with Potent Anti-TLK1 Activity for Prostate Cancer Therapy” (iScience, 2020)
